These results are taken from patent US20240131204A1, “Fractionated Dosing of a Phospholipid Ether Analog for the Treatment of Cancer” (Cellectar Biosciences, Inc., priority 2019, published 2024).

Data set [1] deals with xenograft, orthotopic and transgenic cancer and cancer stem cell derived animal models. The conditions noted are these: radioiodinated CLR1404; cited from earlier work.
For data set [2], the system named is OPM-2 cell line (human multiple myeloma). Kind of data set: OPM-2 multiple myeloma subcutaneous xenograft in CB17 SCID mice (tumor volume, doubling time, survival, body weight). The class given is in vivo. The conditions noted are these: for tolerability: repeated/fractionated dosing versus the single equal dose. The procedure:
The OPM-2 cell line (human multiple myeloma) was purchased from American Type Culture Collection (ATCC, Rockville, MD) and maintained in McCoy's 5a media supplemented with 10% fetal bovine serum. Female CB17 SCID mice approximately 5-7 weeks of age were injected subcutaneously with 1×10^7 viable cells (in ˜100 μL Dulbecco's PBS) into the right flank. The study was initiated when tumor size had reached a pre-determined size (approximately 150-200 mm3). The mice were given potassium iodide at a concentration of 0.1% in their drinking water to block possible free iodide in the drug formulation three days prior to injection and continuing through two weeks post-injection. Mice were randomly assigned to dose groups. Tumor volume was measured with a caliper during the course of the study. Tumor doubling time calculation TDT=D×log(2)/log(1+r/100), where D equals days between measurements and r=rate of growth; r/100=(V2−V1/V1)×100%. Statistical analysis: 1-way Anova, Dunnett's test.

Data set [3] deals with xenograft, orthotopic and transgenic cancer and cancer stem cell derived animal models. Put plainly: Tumor selectivity, uptake and retention in animal tumor models. The conditions noted are these: variety of tumor models. It is filed as in vivo.
The nature of data set [4]: Clinical trial: single bolus dose (Cohort 4) versus fractionated dose (Cohort 5). The class given is in vivo, human. The procedure: Dosing is based upon body surface area or BSA in millicuries/meter squared (mCi/m^2). Patients either received a single 30 minute infusion of 31.25 mCi/m^2 on day 1 or a 30 minute fractionated infusion dose of 15.625 mCi/m^2 on day 1 and then repeated on day 8.

Regarding `C[N+](C)(C)CCOP(=O)([O-])OCCCCCCCCCCCCCCCCCCc1ccc(I)cc1` [CLR1404], the “tumor selectivity (models showing it / models tested)” value in data set [1] is 55/60. Besides, the tolerability result in data set [2] was “well tolerated and is better tolerated than a single equal dose”. Further, in data set [3], the “sequestration and retention by cancer cells and cancer stem cells” value is “sequestered and selectively retained”.
Turning to “^131I-labeled 18-(p-iodo-phenyl)octadecyl phosphocholine [CLR 131]”, the “average reduction in surrogate markers of efficacy” value in data set [4] (fractionated dose (Cohort 5)) is reported as 40%; in data set [4] (single bolus dose (Cohort 4)), 29%. The “average progression free survival” value in data set [4] (fractionated dose (Cohort 5), assessment ongoing) amounted to 2.9 months; in data set [4] (single bolus dose (Cohort 4)), 2.8 months. In addition, the median overall survival is 7.4 months in data set [4] (fractionated dose, 15.625 mCi/m^2 on day 1 and day 8 (Cohort 5), assessment still ongoing); 6.5 months in data set [4] (single bolus dose, 31.25 mCi/m^2 on day 1 (Cohort 4)). Also, the antitumor activity entry in data set [2] (all doses, model of multiple myeloma) is recorded as “marked antitumor activity”. Further, the survival result in data set [2] (fractionated dosing) is given as “statistically significant survival benefit”. Further, the tumor doubling time result in data set [2] (fractionated dosing versus all other treatments) is reported as “markedly increased”. Also, in data set [2] (fractionated dosing, after day 26), the “reduction in tumor volume vs control” value is “statistically significant reduction”. In addition, the “reduction in tumor volume vs all other treatments” value in data set [2] (fractionated dosing, day 52, p<0.05) is given as “statistically significant reduction”. Also, in data set [2], the tolerability entry is “well tolerated and better tolerated than the single equal dose”.
